According to patent US7531565B2, “Imidazolidin-2-one derivatives as selective androgen receptor modulators (SARMS)” (Janssen Pharmaceutica, N.V., priority 2004, dated 2009):

The compounds below were run against T1, androgen receptor (Rattus norvegicus, UniProt P15207) (assay: COS-7 whole-cell androgen receptor binding assay, adenovirus transduction). Conditions: 3 μM (3000 nM); COS-7 cells, [3H]R1881, AdEasy+rAR.
T1 sequence (P15207 1-902): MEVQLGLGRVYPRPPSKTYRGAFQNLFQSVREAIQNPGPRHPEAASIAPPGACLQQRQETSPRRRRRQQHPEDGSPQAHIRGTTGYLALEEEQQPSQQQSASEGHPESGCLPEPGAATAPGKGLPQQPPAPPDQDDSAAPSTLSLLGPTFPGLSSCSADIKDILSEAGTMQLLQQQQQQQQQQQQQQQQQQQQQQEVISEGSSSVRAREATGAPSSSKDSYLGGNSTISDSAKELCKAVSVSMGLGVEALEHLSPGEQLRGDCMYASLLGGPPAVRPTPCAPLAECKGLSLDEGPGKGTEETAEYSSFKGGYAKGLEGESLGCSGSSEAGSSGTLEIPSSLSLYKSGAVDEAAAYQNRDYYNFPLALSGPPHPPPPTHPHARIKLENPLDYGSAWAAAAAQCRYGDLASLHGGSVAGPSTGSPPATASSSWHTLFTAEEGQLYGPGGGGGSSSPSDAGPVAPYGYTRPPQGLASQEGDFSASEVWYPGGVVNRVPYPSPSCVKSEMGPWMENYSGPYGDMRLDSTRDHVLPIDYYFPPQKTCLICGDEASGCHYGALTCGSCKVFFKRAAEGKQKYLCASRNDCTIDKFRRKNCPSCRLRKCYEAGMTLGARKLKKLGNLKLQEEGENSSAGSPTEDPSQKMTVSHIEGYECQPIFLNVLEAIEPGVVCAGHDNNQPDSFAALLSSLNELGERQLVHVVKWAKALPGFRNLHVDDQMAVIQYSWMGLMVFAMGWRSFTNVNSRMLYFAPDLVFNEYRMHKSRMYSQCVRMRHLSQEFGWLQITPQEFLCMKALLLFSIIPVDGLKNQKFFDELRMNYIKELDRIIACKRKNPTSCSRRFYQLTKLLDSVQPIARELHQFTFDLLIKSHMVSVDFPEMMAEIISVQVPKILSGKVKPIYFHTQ
Parameters: expressed in transfected cells
Description: COS-7 cells were plated in 96-well plates at 20,000 cells per well, in a solution of DMEM/F12 (GIBCO) containing 10% (v/v) charcoal-treated fetal bovine serum (Hyclone) and lacking phenol red. The cells were then incubated overnight at 37° C. in 5% (v/v) humidified CO2.
Test compound solutions were prepared by diluting the test compound in 100% (v/v) DMSO, if necessary. Each dilution yielded a solution which was 625× the final desired test concentration.
Next, 1 mL of DMEM/F12 lacking phenol red was pipetted into each of the wells of a 2-mL 96-well assay block. Then 4 μL of the 625× test compound dilutions were pipetted into each well of the assay block. The wells were carefully mixed by pipette.
In a 15 mL or 50 mL sterile centrifuge tube, a 2.5 nM dilution of tritiated methyl-trienolone in DMEM/F12 lacking phenol red ([^3H]R1881; Perkin-Elmer) was prepared.
In a 15 mL or 50 mL sterile centrifuge tube, a dilution in DMEM/F12 of the adenovirus AdEasy+rAR at a moi of 1:50 per well was prepared.
The medium was removed from the 96-well plates by inversion and the plates dried very briefly, inverted, on a sterile towel. As soon as possible after medium removal, 40 μL of the diluted test compound was added to each well, in duplicate. To each well was then added 40 μL of the 2.5 nM [^3H]R1881 and 20 μL of the diluted adenovirus. The plates were then incubated for 48 hours at 37° C. in 5% (v/v) humidified CO2.
The medium was removed from the above incubated plates by inversion and dried. Each well was then washed with 0.35 mL of 1×PBS. The PBS was then removed from the plates by inversion and the plates dried.
To each well was then added 50 μL of 0.5% (v/v) Triton X-100 (Sigma) in 1×PBS and the plates placed on a rotary shaker for 5 min. The contents of each well were then transferred to an OptiPlate-96 (Packard) scintillation plate. To each well was then added 0.2 mL of Microscint-20 (Packard) and the wells counted on a TopCount (Packard).
Percent inhibition was determined by testing dilutions of the test compound (usually duplicates of 10 μM) in the binding assay. Counts per well were measured and percents of inhibition determined. Androgen receptor binding IC50s were determined by testing serial dilutions of the test compound (usually duplicate ten half-log dilutions starting at 10 μM) in the binding assay. Counts per well were measured and IC50s determined by linear regression.
Representative compounds of the present invention were tested for binding to the androgen receptor according to the procedure described above with results as listed in Table C. Unless otherwise noted, COS binding % inhibition was determined using a concentration of 3000 nM. For compounds tested more than once, each result is listed separately in Table 3 below.

Q: `COC(=O)C1(C)CN(c2ccccc2)C(=O)N1` (racemic) [Compound 4b] was tested. Which “% Inhibition @ 3 μM” value did it give?
A: 16%

Q: Which “% Inhibition @ 3 μM” value does the source give for `CC1(C(=O)O)CN(c2ccccc2)C(=O)N1` (racemic) [Compound 5b] here?
A: 15%

Q: Which “% Inhibition @ 3 μM” value does the source give for `COc1ccc(N2CC(C)(C(=O)O)NC2=O)cc1` (racemic) [Compound 5c] here?
A: −11%

Q: With `COC(=O)C1(C)CN(c2ccc(C#N)c(C(F)(F)F)c2)C(=O)N1` (racemic) [Compound 4e] as the compound, how does the “% Inhibition @ 3 μM” value read?
A: 27%

Q: For `COC(=O)C1(C)CN(c2ccc(Cl)c(C(F)(F)F)c2)C(=O)N1` (racemic) [Compound 4d], which “% Inhibition @ 3 μM” value is on record?
A: −30%

Q: `CC1(C(=O)Nc2ccccc2)CN(c2ccccc2)C(=O)N1` (racemic) [Compound 6b] was tested. Which “% Inhibition @ 3 μM” value did it give?
A: 22%

Q: How did the “% Inhibition @ 3 μM” value turn out when `CC1(C(=O)Nc2ccc(C(F)(F)F)nc2)CN(c2ccccc2)C(=O)N1` (racemic) [Compound 6j] was run?
A: 18%

Q: How did the “% Inhibition @ 3 μM” value turn out when `CC1(C(=O)O)CN(c2ccc(Cl)c(C(F)(F)F)c2)C(=O)N1` (racemic) [Compound 5d] was run?
A: −26%

Q: How did the “% Inhibition @ 3 μM” value turn out when `COC(=O)C1(C)CN(c2ccc(OC)cc2)C(=O)N1` (racemic) [Compound 4c] was run?
A: −8%

Q: With `CC1(C(=O)Nc2cccc(C(F)(F)F)c2)CN(c2ccc(F)cc2)C(=O)N1` (racemic) [Compound 6g] as the compound, how does the “% Inhibition @ 3 μM” value read?
A: −40%

Q: With `CC1(C(=O)Nc2cc(C(F)(F)F)cc(C(F)(F)F)c2)CN(c2ccc(F)cc2)C(=O)N1` (racemic) [Compound 6h] as the compound, how does the “% Inhibition @ 3 μM” value read?
A: 76%

Q: How did the “% Inhibition @ 3 μM” value turn out when `CC1(C(=O)Nc2ccc([N+](=O)[O-])c(C(F)(F)F)c2)CN(c2ccccc2)C(=O)N1` (racemic) [Compound 6e] was run?
A: 37%

Q: `CC1(C(=O)Nc2ccc(C#N)c(C(F)(F)F)c2)CN(c2ccccc2)C(=O)N1` (racemic) [Compound 6d] was tested. Which “% Inhibition @ 3 μM” value did it give?
A: 40%

Q: `COc1ccc(N2CC(C)(C(=O)Nc3ccc(C#N)c(C(F)(F)F)c3)NC2=O)cc1` (racemic) [Compound 6c] was tested. Which “% Inhibition @ 3 μM” value did it give?
A: 24%

Same assay, conditions: read-out: % Inhibition @ 3 μM

Q: How did the inhibition at 3 µM turn out when `CC1(C(=O)Nc2ccc(C#N)c(C(F)(F)F)c2)CN(c2ccc(F)cc2)C(=O)N1` (stereo not shown) [Compound 6a, 1-(4-Fluoro-phenyl)-4-methyl-2-oxo-imidazolidine-4-carboxylic acid (4-cyano-3-trifluoromethyl-phenyl)-amide] was run?
A: 43%

Q: With `CC1(C(=O)O)CN(c2ccc(F)cc2)C(=O)N1` (stereo not shown) [Compound 5a, 1-(4-Fluoro-phenyl)-4-methyl-2-oxo-imidazolidine-4-carboxylic acid] as the compound, how does the inhibition at 3 µM read?
A: -14%
